This note sets out measurements from ChEMBL document CHEMBL1201862, “PubChem BioAssay data set” (2004).

Some test systems named below: A498; CAKI-1; COLO 205; DU-145; HCT-116; HT-29; K562; M14; M19-MEL; MCF7; MDA-MB-231; MOLT-4; NCI-H226; NCI-H522; OVCAR-3; SF-268; SK-MEL-28; UACC-257; UACC-62; UO-31.
Holding throughout (assay): inhibition of tumour cell growth, NCI panel, 48 h

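96-well plates; 48 h exposure; 5 concentrations. Endpoints by linear interpolation between flanking doses. Not reached: highest tested concentration assigned. GI50 marks 50% less growth.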 Calls of active or inactive are those of the source. Cut-off read from the data, not from the text of the source: active = GI50 up to about 1.1 µM and inactive = higher.

As to `CCC(C)C(=O)O[C@H]1C(=O)O[C@@H]2C[C@H]3C(C)=CC(=O)[C@@H](O)[C@]3(C)[C@H]3[C@@H](O)[C@H](O)[C@@]4(C)OC[C@]32[C@@H]14` (stereo not given in full), the GI50 is < 10 nM (active) with A498; < 45.5 nM (active) in the experiment on CAKI-1; 22.9 nM (active) in the experiment on COLO 205; < 10 nM (active) in the experiment with DU-145; < 10 nM (active) in the experiment with HCT-116; < 14.6 nM (active) in the experiment with HT-29. In addition, the GI50 with K562 was 10.9 nM (active); in the experiment with M14 it was < 14.4 nM (active); in the experiment with M19-MEL, 26.9 nM (active); with MCF7, < 10 nM (active); with MDA-MB-231, < 10 nM (active); in the experiment with MOLT-4, 11.2 nM (active). The GI50 in the experiment with NCI-H226 was < 15.7 nM (active); with NCI-H522 it was 14.7 nM (active); in the experiment with OVCAR-3, 16.9 nM (active); with SF-268, < 16.4 nM (active); with SK-MEL-28, < 10 nM (active); with UACC-257, < 10 nM (active). Further, the GI50 with UACC-62 was < 19 nM (active); with UO-31 it was < 21.7 nM (active).
Consider `Cc1cc(C(=C2C=CC(=N)C=C2)c2ccc(N)cc2)ccc1N` [FUCHSIN, BASIC], for which the GI50 in the experiment with A498 was 32500 nM (inactive); in the experiment on CAKI-1, 11900 nM (inactive); in the experiment with COLO 205 it was 1010 nM (active); in the experiment on DU-145, 5400 nM (inactive); in the experiment with HCT-116, 3360 nM (inactive); with HT-29, 3660 nM (inactive). Further, the GI50 in the experiment on K562 is 2790 nM (inactive); with M14 it was 4230 nM (inactive); in the experiment with M19-MEL, 4210 nM (inactive); with MCF7 it was 3130 nM (inactive); in the experiment on MDA-MB-231 it was 6300 nM (inactive); with MOLT-4, 5510 nM (inactive). The GI50 with NCI-H226 was 3190 nM (inactive); in the experiment on NCI-H522, 2840 nM (inactive); with OVCAR-3 it was 3960 nM (inactive); in the experiment with SF-268, 556 nM (active); with SK-MEL-28 it was 8200 nM (inactive); in the experiment with UACC-257, 3650 nM (inactive). The GI50 in the experiment with UACC-62 is 4450 nM (inactive); in the experiment on UO-31, 17600 nM (inactive).
